Format in all cases: biochemical
The target of experiment [1] is PI3K-alpha (Homo sapiens, UniProt P42336). Put plainly: PI3K-alpha fluorescence polarization assay. (In general: In fluorescence polarisation assays a small probe gives low polarisation when free and higher when bound to something large.)
Experiment [2] deals with PI3K-gamma (Homo sapiens, UniProt P48736). Put plainly: PI3K-gamma fluorescence polarization assay. As to conditions: PI3Kγ Avg. IC50. The essentials:
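Enzyme 5 ng; substrate diC8-PI(4,5)P2 2.5 μM; ATP 25 μM; 5 mM HEPES pH 7, 2.5 mM MgCl2; DMSO ≤2%; 1 h, 25° C. Quench 10 mM EDTA. Detect with GRP1 PH domain 100 nM + TMR-IP4 probe 5 nM by polarization.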

In experiment [3] the target is T1, human TOR (Homo sapiens, UniProt P42345).
T1 construct: FLAG
Description: mTOR enzyme assay (DELFIA, His6-S6K substrate). As to conditions: read-out: mTOR Kinase Avg. IC50.

Like-named read-outs stand apart in the source and are kept apart here.

Sequence of PI3K-gamma (P48736 whole entry, species assumed, the tested form may be a part): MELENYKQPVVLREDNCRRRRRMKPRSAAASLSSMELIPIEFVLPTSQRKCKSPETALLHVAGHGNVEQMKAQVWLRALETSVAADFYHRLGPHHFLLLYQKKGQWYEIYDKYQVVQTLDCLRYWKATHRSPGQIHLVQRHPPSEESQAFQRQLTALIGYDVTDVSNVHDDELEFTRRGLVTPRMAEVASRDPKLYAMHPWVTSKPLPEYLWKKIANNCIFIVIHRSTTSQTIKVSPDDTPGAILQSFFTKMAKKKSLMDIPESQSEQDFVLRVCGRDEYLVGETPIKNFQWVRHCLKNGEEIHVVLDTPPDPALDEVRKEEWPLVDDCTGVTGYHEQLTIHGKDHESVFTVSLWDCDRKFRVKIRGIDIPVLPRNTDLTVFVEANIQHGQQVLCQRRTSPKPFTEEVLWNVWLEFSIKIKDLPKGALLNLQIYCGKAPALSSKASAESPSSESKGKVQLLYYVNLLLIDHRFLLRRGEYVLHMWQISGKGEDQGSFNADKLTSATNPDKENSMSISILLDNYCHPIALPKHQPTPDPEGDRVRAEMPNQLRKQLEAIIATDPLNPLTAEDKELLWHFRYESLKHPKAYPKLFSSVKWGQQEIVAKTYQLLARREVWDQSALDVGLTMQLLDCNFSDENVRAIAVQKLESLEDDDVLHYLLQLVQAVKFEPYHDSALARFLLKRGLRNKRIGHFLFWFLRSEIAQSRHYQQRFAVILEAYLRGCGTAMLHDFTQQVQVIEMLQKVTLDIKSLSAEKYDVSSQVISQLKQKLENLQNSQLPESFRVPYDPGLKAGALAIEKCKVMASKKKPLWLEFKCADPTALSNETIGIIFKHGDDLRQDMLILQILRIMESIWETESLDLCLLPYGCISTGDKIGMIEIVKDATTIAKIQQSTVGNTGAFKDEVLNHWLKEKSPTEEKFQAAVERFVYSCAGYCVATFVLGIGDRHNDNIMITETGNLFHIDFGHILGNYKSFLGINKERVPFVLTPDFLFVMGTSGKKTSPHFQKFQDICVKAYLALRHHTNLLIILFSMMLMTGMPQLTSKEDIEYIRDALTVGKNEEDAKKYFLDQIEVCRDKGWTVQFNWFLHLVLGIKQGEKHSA
Sequence of PI3K-alpha (P42336 whole entry, species assumed): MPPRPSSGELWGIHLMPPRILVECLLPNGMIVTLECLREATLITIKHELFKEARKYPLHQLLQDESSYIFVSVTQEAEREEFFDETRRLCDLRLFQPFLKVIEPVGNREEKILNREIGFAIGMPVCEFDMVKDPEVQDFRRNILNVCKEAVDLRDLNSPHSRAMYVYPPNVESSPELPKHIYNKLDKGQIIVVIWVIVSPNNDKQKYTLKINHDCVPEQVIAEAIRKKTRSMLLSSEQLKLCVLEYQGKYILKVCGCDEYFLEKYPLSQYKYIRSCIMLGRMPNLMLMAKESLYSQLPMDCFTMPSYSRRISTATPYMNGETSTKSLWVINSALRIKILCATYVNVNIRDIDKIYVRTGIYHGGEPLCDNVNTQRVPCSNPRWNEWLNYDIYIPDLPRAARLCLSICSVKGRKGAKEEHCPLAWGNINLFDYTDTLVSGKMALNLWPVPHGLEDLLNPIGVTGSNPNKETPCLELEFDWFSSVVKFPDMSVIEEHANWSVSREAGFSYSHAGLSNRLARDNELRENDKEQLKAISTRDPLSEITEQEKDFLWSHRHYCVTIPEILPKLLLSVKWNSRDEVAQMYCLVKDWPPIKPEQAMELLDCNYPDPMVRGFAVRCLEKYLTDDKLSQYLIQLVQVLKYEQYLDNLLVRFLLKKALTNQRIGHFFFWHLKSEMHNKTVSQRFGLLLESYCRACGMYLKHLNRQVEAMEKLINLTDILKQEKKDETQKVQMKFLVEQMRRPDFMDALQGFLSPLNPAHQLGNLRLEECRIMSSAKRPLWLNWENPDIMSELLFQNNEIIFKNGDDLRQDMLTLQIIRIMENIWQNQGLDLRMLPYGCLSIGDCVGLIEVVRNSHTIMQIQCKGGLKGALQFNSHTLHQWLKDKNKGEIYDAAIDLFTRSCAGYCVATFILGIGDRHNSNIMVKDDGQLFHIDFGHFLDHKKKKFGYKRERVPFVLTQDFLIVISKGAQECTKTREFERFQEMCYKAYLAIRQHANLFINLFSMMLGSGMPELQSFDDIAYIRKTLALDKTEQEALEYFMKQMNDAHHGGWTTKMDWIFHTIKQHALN
Sequence of PI3K-alpha (P27986 whole entry partner, species assumed): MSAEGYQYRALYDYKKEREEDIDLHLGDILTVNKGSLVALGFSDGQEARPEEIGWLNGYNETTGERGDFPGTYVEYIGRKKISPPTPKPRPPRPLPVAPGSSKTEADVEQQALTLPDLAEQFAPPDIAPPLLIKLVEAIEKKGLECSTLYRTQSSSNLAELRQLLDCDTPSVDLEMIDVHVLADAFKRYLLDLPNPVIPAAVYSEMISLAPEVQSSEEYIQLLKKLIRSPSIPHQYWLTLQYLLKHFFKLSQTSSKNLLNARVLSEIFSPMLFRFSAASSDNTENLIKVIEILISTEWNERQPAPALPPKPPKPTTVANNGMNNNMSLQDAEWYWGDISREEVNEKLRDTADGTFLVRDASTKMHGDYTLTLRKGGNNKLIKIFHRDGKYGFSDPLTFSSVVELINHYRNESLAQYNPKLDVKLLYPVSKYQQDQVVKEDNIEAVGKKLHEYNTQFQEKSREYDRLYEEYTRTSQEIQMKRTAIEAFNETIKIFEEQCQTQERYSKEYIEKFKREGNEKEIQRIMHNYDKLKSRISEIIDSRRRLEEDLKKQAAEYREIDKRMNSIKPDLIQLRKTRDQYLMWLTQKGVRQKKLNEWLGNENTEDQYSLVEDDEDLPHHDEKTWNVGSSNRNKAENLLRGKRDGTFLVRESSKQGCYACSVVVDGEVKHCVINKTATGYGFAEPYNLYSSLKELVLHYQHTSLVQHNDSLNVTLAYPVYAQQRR

Regarding `CCn1c(C)c(/C=C2\Oc3ccc(NC(=O)Nc4ccc(C(=O)N5CCC(N(C)C)CC5)cc4)cc3C2=O)c2cc(OC)ccc21` [Compound 650, 1-(4-{[4-(dimethylamino)piperidin-1-yl]carbonyl}phenyl)-3-{(2Z)-2-[(1-ethyl-5-methoxy-2-methyl-1H-indol-3-yl)methylene]-3-oxo-2,3-dihydro-1-benzofuran-5-yl}urea], the IC50 – broadly, the concentration that gives 50% inhibition – is 0.4 nM in experiment [1] (read-out: PI3Kα Avg. IC50), 3 nM in experiment [2] and 31 nM in experiment [3].
Taken in the same sequence, the figures for `Cn1cc(C=C2Oc3cc(O)cc(O)c3C2=O)c2c(C#N)cccc21` [Example 188, 3-[(4,6-dihydroxy-3-oxo-1-benzofuran-2(3H)-ylidene)methyl]-1-methyl-1H-indole-4-carbonitrile] were 1800 nM, greater than 10000 nM and 260 nM.
Consider `CCc1cccc2c(C=C3Oc4cc(O)cc(O)c4C3=O)cn(CCCC#N)c12` [Example 232, 4-{3-[(4,6-dihydroxy-3-oxo-1-benzofuran-2(3H)-ylidene)methyl]-7-ethyl-1H-indol-1-yl}butanenitrile], for which the concentration for half-maximal inhibition (IC50) is 610 nM in experiment [1] (read-out: PI3Kα Avg. IC50), 6000 nM in experiment [2] and greater than 20000 nM in experiment [3].
The matching figures for `COc1ccc2[nH]c(-c3c(C)nn(C)c3C)c(/C=C3\Oc4ccc(NC(=O)Nc5ccc(N(C)C(=O)CCN(C)C)cc5)cc4C3=O)c2c1` [Compound 696, N-(4-{[(2-{[5-methoxy-2-(1,3,5-trimethyl-1H-pyrazol-4-yl)-1H-indol-3-yl]methylidene}-3-oxo-2,3-dihydro-1-benzofuran-5-yl)carbamoyl]amino}phenyl)-N,N3,N3-trimethyl-b-alaninamide]: 3 nM, 48 nM and 5 nM.
Regarding `O=C1/C(=C/c2c(-c3ccc4ccccc4c3)[nH]c3ccccc23)Oc2cc(O)cc(O)c21` [Example 45, (2Z)-4,6-dihydroxy-2-{[2-(2-naphthyl)-1H-indol-3-yl]methylene}-1-benzofuran-3(2H)-one], the IC50 in experiment [1] (PI3Kα Avg. IC50) is 799 nM; in experiment [2], 1820 nM; in experiment [3] it was 280 nM.
`COc1ccc2c(c1)SC(=Cc1c[nH]c3ccc(OC)cc13)C2=O` [Example 433, 6-Methoxy-2-[(5-methoxy-1H-indol-3-yl)methylene]-1-benzothiophen-3(2H)-one]: the IC50 in experiment [1] (read-out: PI3Kα Avg. IC50) is greater than 10000 nM; in experiment [2] it was greater than 10000 nM; in experiment [3] it was greater than 20000 nM.
On to `COc1ccc2c(c1)c(/C=C1\Oc3cc(NC(=O)OC(C)(C)C)ccc3C1=O)cn2CCCN(C)C` [Example 417, tert-butyl (2Z)-[2-({1-[3-(dimethylamino)propyl]-5-methoxy-1H-indol-3-yl}methylene)-3-oxo-2,3-dihydro-1-benzofuran-6-yl]carbamate], for which the IC50 in experiment [1] (read-out: PI3Kα Avg. IC50) is 4740 nM; in experiment [2], 2100 nM; in experiment [3], greater than 20000 nM.
For `Cc1ccc2[nH]cc(/C=C3\Oc4c(ccc(O)c4O)C3=O)c2c1` [Example 65, (2Z)-6,7-dihydroxy-2-[(5-methyl-1H-indol-3-yl)methylene]-1-benzofuran-3(2H)-one], the IC50 is 384 nM in experiment [1] (read-out: PI3Kα Avg. IC50), 3770 nM in experiment [2] and greater than 20000 nM in experiment [3].
Taken in the same sequence, the figures for `CN(C)C(=O)Nc1ccc(-c2cccc3c2c(/C=C2\Oc4cc(O)cc(O)c4C2=O)cn3C)cc1` [Example 394, 3-(4-{3-[(Z)-(4,6-dihydroxy-3-oxo-1-benzofuran-2(3H)-ylidene)methyl]-1-methyl-1H-indol-4-yl}phenyl)-1,1-dimethylurea] were 460 nM, 4120 nM and 69 nM.
On to `CNc1ccc(-c2cccc3c2c(/C=C2\Oc4cc(O)cc(O)c4C2=O)cn3C)cc1` [Example 389, (2Z)-4,6-Dihydroxy-2-({1-methyl-4-[4-(methylamino)phenyl]-1H-indol-3-yl}methylene)-1-benzofuran-3(2H)-one], for which the figures for the IC50 in experiment [1] (read-out: PI3Kα Avg. IC50), in experiment [2] and in experiment [3] were 1870 nM, 9860 nM and 11.5 nM, respectively.
The matching figures for `CNC(=O)Nc1ccc2c(c1)C(=O)/C(=C/c1c(-c3cnn(C)c3C)[nH]c3ccc(OC)cc13)O2` [Compound 723, 1-[(2Z)-2-{[2-(1,5-dimethyl-1H-pyrazol-4-yl)-5-methoxy-1H-indol-3-yl]methylidene}-3-oxo-2,3-dihydro-1-benzofuran-5-yl]-3-methylurea]: 1 nM, 4.1 nM and 3 nM.
Taken in the same sequence, the figures for `COc1ccc2c(c1)c(/C=C1\Oc3ccc(NC(=O)Nc4ccc(OCCCCN(C)C)cc4)cc3C1=O)c(C)n2CCN1CCN(C)CC1` [Compound 674, 1-{4-[4-(dimethylamino)butoxy]phenyl}-3-[(2Z)-2-({5-methoxy-2-methyl-1-[2-(4-methylpiperazin-1-yl)ethyl]-1H-indol-3-yl}methylidene)-3-oxo-2,3-dihydro-1-benzofuran-5-yl]urea] were 10 nM, 686 nM and 350 nM.
As for `COc1ccc2c(c1)c(/C=C1\Oc3cc(O)cc(Cl)c3C1=O)c(C)n2CCCN(C)C` [Example 466, (2Z)-4-Chloro-2-({1-[3-(dimethylamino)propyl]-5-methoxy-2-methyl-1H-indol-3-yl}methylene)-6-hydroxy-1-benzofuran-3(2H)-one], the 50% inhibitory concentration (IC50) in experiment [1] (read-out: PI3Kα Avg. IC50) stood at 73 nM; in experiment [2], 1270 nM; in experiment [3] it was 7500 nM.
Taken in the same sequence, the figures for `CC(=O)Nc1ccc(-c2cccc3c2c(/C=C2\Oc4cc(O)cc(O)c4C2=O)cn3C)cc1` [Example 383, N-(4-{3-[(Z)-(4,6-Dihydroxy-3-oxo-1-benzofuran-2(3H)-ylidene)methyl]-1-methyl-1H-indol-4-yl}phenyl)acetamide] were 750 nM, 2250 nM and 12.3 nM.
Take `CNC(=O)Nc1ccc2c(c1)C(=O)/C(=C/c1c(-c3c(C)nn(C)c3C)[nH]c3c(F)c(F)c(OC)cc13)O2` [Compound 713, 1-[(2Z)-2-{[6,7-difluoro-5-methoxy-2-(1,3,5-trimethyl-1H-pyrazol-4-yl)-1H-indol-3-yl]methylidene}-3-oxo-2,3-dihydro-1-benzofuran-5-yl]-3-methylurea]: the IC50 in experiment [1] (read-out: PI3Kα Avg. IC50) came out at 14 nM; in experiment [2] it was 70.5 nM; in experiment [3], 45 nM.
For `COc1ccc2[nH]c(-c3c(C)nn(C)c3C)c(/C=C3\Oc4ccc(NC(=O)Nc5ccc(C(=O)N6CCOCC6)cc5)cc4C3=O)c2c1` [Compound 690, 1-[(2Z)-2-{[5-methoxy-2-(1,3,5-trimethyl-1H-pyrazol-4-yl)-1H-indol-3-yl]methylidene}-3-oxo-2,3-dihydro-1-benzofuran-5-yl]-3-[4-(morpholin-4-ylcarbonyl)phenyl]urea], the IC50 in experiment [1] (read-out: PI3Kα Avg. IC50) is 0.2 nM; in experiment [2] it was 2.75 nM; in experiment [3], 4 nM.
Taken in the same sequence, the figures for `CNC(=O)Nc1cc2c(cc1C)O/C(=C\c1c(C)n(CCN3CCN(C)CC3)c3ccc(OC)cc13)C2=O` [Compound 640, 1-[(2Z)-2-({5-methoxy-2-methyl-1-[2-(4-methylpiperazin-1-yl)ethyl]-1H-indol-3-yl}methylene)-6-methyl-3-oxo-2,3-dihydro-1-benzofuran-5-yl]-3-methylurea] were 488 nM, 6040 nM and 1450 nM.
`Cn1c(-c2ccc(F)cc2)c(C=C2Oc3cc(O)cc(O)c3C2=O)c2ccccc21` [Example 200, 2-{[2-(4-fluorophenyl)-1-methyl-1H-indol-3-yl]methylene}-4,6-dihydroxy-1-benzofuran-3(2H)-one]: the half-maximal inhibitory concentration (IC50) is 1090 nM in experiment [1] (read-out: PI3Kα Avg. IC50), 3070 nM in experiment [2] and 220 nM in experiment [3].
The matching figures for `COc1ccc2c(c1)c(/C=C1\Oc3cc(O)cc(O)c3C1=O)c(C1CCCC1)n2CCN1CCN(C)CC1` [Example 410, (2Z)-2-({2-cyclopentyl-5-methoxy-1-[2-(4-methylpiperazin-1-yl)ethyl]-1H-indol-3-yl}methylene)-4,6-dihydroxy-1-benzofuran-3(2H)-one]: 3 nM, 116 nM and 0.64 nM.
Taken in the same sequence, the figures for `COc1ccc2[nH]c(-c3c(C)nn(C)c3C)c(/C=C3\Oc4ccc(NC(=O)Nc5ccc(C(=O)NCCN(C)C)cc5)cc4C3=O)c2c1` [Compound 711, N-[2-(dimethylamino)ethyl]-4-({[(2Z)-2-{[5-methoxy-2-(1,3,5-trimethyl-1H-pyrazol-4-yl)-1H-indol-3-yl]methylidene}-3-oxo-2,3-dihydro-1-benzofuran-5-yl]carbamoyl}amino)benzamide] were 0.4 nM, 2.25 nM and less than 1 nM.
In the case of `O=C1C(=Cc2c(-c3ccncc3)[nH]c3ccccc23)Oc2cc(O)cc(O)c21` [Example 203, 4,6-dihydroxy-2-[(2-pyridin-4-yl-1H-indol-3-yl)methylene]-1-benzofuran-3(2H)-one], the half-inhibitory concentration (IC50) turned out to be 1410 nM in experiment [1] (read-out: PI3Kα Avg. IC50), 6620 nM in experiment [2] and 150 nM in experiment [3].
With `COc1ccc2[nH]c(C3CCCCC3)c(/C=C3\Oc4ccc(NC(=O)Nc5ccc(C(=O)N(C)CCN(C)C)cc5)cc4C3=O)c2c1` [Compound 688, 4-[({(2Z)-2-[(2-cyclohexyl-5-methoxy-1H-indol-3-yl)methylidene]-3-oxo-2,3-dihydro-1-benzofuran-5-yl}carbamoyl)amino]-N-[2-(dimethylamino)ethyl]-N-methylbenzamide], the IC50 stood at 0.3 nM in experiment [1] (read-out: PI3Kα Avg. IC50), 1.95 nM in experiment [2] and 6 nM in experiment [3].
For `N#CCCCCn1c(-c2ccccc2)c(C=C2Oc3cc(O)cc(O)c3C2=O)c2ccccc21` [Example 224, 5-{3-[(4,6-dihydroxy-3-oxo-1-benzofuran-2(3H)-ylidene)methyl]-2-phenyl-1H-indol-1-yl}pentanenitrile], the 50% inhibitory concentration (IC50) is 751 nM in experiment [1] (read-out: PI3Kα Avg. IC50), greater than 10000 nM in experiment [2] and 480 nM in experiment [3].

Values taken from patent publication US20090311217A1, “3-SUBSTITUTED-1H-INDOLE COMPOUNDS, THEIR USE AS MTOR KINASE AND PI3 KINASE INHIBITORS, AND THEIR SYNTHESES” (priority 2008, published 2009).
